In paper PMC12400753 (Respiratory Research, 2025):
One block for each compound: values may come before it.

Key:
[1] = test system: bleomycin-induced lung fibrosis; assay: Systemic (subcutaneous) bleomycin mouse model; type: in vivo; conditions: 30 mg/kg oral twice a day, therapeutic
Protocol: Mice were injected subcutaneously with bleomycin (0.1 units/day), on a schedule of 5 days on/2 days off to induce fibrosis. […] Dosing was maintained until study end, at which point lung tissues were collected. The right lobe was snap frozen and processed for collagen analysis for hydroxyproline; the left lobe was sectioned and stained with Masson’s trichrome stain for histological assessment of tissue collagen. This study was conducted by Inotiv (West Lafayette, IN). Forty-four female 9 week old C57Bl/6 mice (Jackson Labs) were provided standard chow (Envigo, Cat #: 8940), housed under standard conditions, and allowed to acclimate for > 3 days prior to enrollment. Prior to start, mice were weighed and placed into balanced enrollment groups. Four days prior to start, mice were anesthetized, dorsal fur shaved and removed with depilatory agent, and two circles (~ 1.5 cm diameter) heat-branded on their dorsal abdomen. Fur was removed as needed for the balance of the study to ensure consistent location of s.c. injections. Beginning on day 0 and through day 26, mice were anesthetized with isoflurane and administered 0.9% NaCl or bleomycin injections (100 µl/injection, s.c.) into each of the circles (2 injections/mouse/d) on a 5 day on/2 day off paradigm. Mice were administered 0.9% NaCl (vehicle) or bleomycin (0.1 U) with bleomycin doses split evenly between the two circles (i.e., 0.05 U/circle). […] Weight measures and health observations were made daily. On day 27, mice were dosed to enable trough blood/plasma collection on day 28, which was collected via retro-orbital approach under isoflurane anesthesia. Following blood collection, mice were administered vehicle or compound on a timetable as appropriate to enable a peak blood collection 2 h postdose. At the time of sacrifice, mice were anesthetized with pentobarbital, a tracheotomy performed and interfaced with a positive pressure ventilator providing 100% O2. The mouse’s chest was then opened, and a needle interfaced with an infusion pump introduced to the right ventricle. […] The lungs were then harvested, immediately immersed in ice-cold 0.9% NaCl, gross dissected and subjected to morphological analyses. Tissue samples will be processed for biochemical and/or histological analyses as described below. Masson’s Trichrome Blue stained slides were subjected to histological analyses using color segmentation analysis for lung fibrosis. Frozen lung samples underwent hydroxyproline analysis as described below. Lung tissue processing – following exsanguination and flushing of the pulmonary circulation to clear blood, the lungs were removed, placed in ice-cold 0.9% NaCl and processed on wet ice. Extraneous tissue was removed and whole lung weight recorded. […]

[2] = test system: primary human lung fibroblasts; assay: LPA-induced COL1A1 expression (immunocytochemistry); type: cell-based; conditions: Homo sapiens, Fibroblast; 1 µM LPA 8 h; compound overnight; read-out: IC50 inhibition of COL1A1 expression
Protocol: COL1A1 assay: Primary human lung fibroblasts were plated in a 96-well plate and allowed to adhere. […] The next day, cells were treated with 1 µM LPA and incubated for 8 h. After incubation in LPA, cells were immunostained for COL1A1. Cells were fixed in formalin for 10 min, washed 3 x with PBS, incubated in collagen 1A1 antibody (1:250 in blocking buffer, 0.1% Triton X-100 in PBS, 2 h), and washed 3 x with PBS. Secondary antibody solution (1:500) and Hoechst (1:2000) were added for 1 h, washed 3 x in PBS then imaged on a Nikon A1R confocal microscope at 10x magnification except human lung fibroblasts which were imaged at 4x. Collagen area was quantified with ImageJ and normalized to Hoechst per image.

LPAR1 [3] = molecular target: T1, LPAR1 (Homo sapiens, UniProt Q92633); assay: LPAR1 calcium mobilization (reference compounds); type: cell-based
Protocol: B. C. LPAR1 Averaged Data (n=4) 200 […] 125 Nonspecific Binding 2nM 600 Specific Binding 150 1nM 100 75 400 100 50 200 25 50 0 0 -25 0 2 4 6 8 10 120 -10 -9 -8 -7 -6 -5[3H]-PIPE-497 (nM) 0 25 50 75 100 125 log[PIPE-497], M Time Figure S3. PIPE- 497 is a potent L P AR 1 receptor antagonist with properties suitable as an in vivo radioligand. A. L P AR 1 calcium mobilization data showing that PIPE-497 (non-tritiated) is a p ot ent […] B. Saturation binding curves of 3H-PIPE-497 to huma n LPAR1 membranes (n=2, error bars are SEM). C. Binding kinetics of 3H-PIPE-497 in recombinant membranes. […] with 10 μM PIPE- 497 th en add ed to membranes at different time points resulting in a residence time of 16.2 minutes (n=4, error bars are SEM). […] At 10 mg/kg, th e free p las ma exposure of BM S -986278 exceeds its measured IC 5 0 up until 4 h p ost d ose. […] IC50 LPAR1)

[4] = test system: fresh human PCLS from donors with pulmonary fibrosis; assay: Secreted biomarkers in fresh PCLS from pulmonary fibrosis donors; type: cell-based; conditions: nintedanib 300 nM; 48 h
From the text: Translationally, biomarker-based strategies for assessing aberrant extracellular matrix deposition and remodeling in the context of disease pathogenesis and compound efficacy have become increasingly relevant. For the PCLS gene expression studies, slices were preserved through slow cryogenic freezing of tissue. While this affords experimental flexibility, some physiological relevance is lost over the course of cryostorage and recovery (e.g., immune cell loss). To circumvent this, fresh PCLS from two donors with pulmonary fibrosis were generated and immediately placed into culture. For this experiment, well-established, secreted fibrotic markers that encompass fibrogenesis and tissue remodeling were measured: C3M (a marker of collagen III degradation and an indicant of ECM remodeling and tissue turnover), Pro-C3 (a neo-epitope fragment of collagen III and a marker of active fibrogenesis and fibrosis progression), and Pro-C6 (a neoepitope fragment of COLVIA3 and a marker of remodeling and wound healing). […] Media was then removed and analyzed for biomarker concentration.
PCLS cultures for secreted biomarker analysis were performed at Fraunhofer ITEM (Hanover, Germany) using tissue from pathologist qualified, pulmonary fibrosis patients. Tissue from individual donors and 2 lung regions were collected in accordance with policies approved by the Hanover Medical School ethics committee. Only fibrotic tissue was used for experiments. Region 1 consisted of subpleural tissue and Region 2 of central tissue. For each, lung lobes were filled with low-melting agarose then sectioned at 300 μm on a Krumdiek tissue slicer as described in Hesse et al., 2022. Slices were incubated in DMEM containing penicillin and streptomycin, two slices per region were used. […] Supernatant was collected and shipped to Nordic Bioscience (Herlev, Denmark) for C3M, Pro-C6 and Pro-C3 analysis. Donor information can be found in Additional File 1.

[5] = test system: human precision cut lung slices from donors with pulmonary fibrosis; assay: Fibrotic marker mRNA (qPCR) in cryopreserved PCLS from donors with pulmonary fibrosis; type: cell-based; conditions: 6 days
From the text: Slices were snap frozen and processed for transcript analysis by quantitative PCR. […] Concurrently, we evaluated two well-established, clinical stage antifibrotic mechanisms in this setting: an αvβ1/6 inhibitor (bexotegrast, PLN-74809) and a PDE4B inhibitor (nerandomilast, BI 1015550).
Precision cut lung slices were obtained from Anabios (San Diego, CA) and collected in accordance with their ethics policy (https://anabios.com/ethics-statement/). Donor demographics are available in Additional File 1. Slices were thawed as per vendor instructions. Briefly, PCLS were thawed at 37 °C then transferred to media consisting of DMEM/F12, Antibiotic-Antimytotic, and Penicillin-Streptomycin. PCLS were gently rinsed then transferred to a larger dish. A small tissue sample was excised with a scalpel for immunohistochemistry and qPCR characterization. […] Final concentration of DMSO was 0.1%. Media and compound were replaced every two days for a total of 6 days. At the end of the experiment, slices were collected and snap frozen. Quantitative PCR: RNA was extracted using RNEasy columns. RNA was reverse transcribed using qScript XLT per manufacturer’s instructions. Genes of interest were assessed by qPCR using Perfecta SYBR Green on a StepOne Plus Thermocycler (ABI). Parameters were as follows: 95 °C 30 s, then 45 cycles of 95 °C for 5 s and 60 °C for 30 s.

human LPAR2 = molecular target: T2, human LPAR2 (Homo sapiens, UniProt Q9HBW0); assay: LPA-induced calcium mobilization in transiently transfected HEK293T cells; type: cell-based; conditions: empirically determined, used for stimulation
T2 construct: host or cells: HEK293T
Protocol: (§1) We had previously assessed selectivity against LPAR2 and 3 [11]. […] Human LPAR1-6 plasmids were each transiently transfected into HEK293T cells and the EC80 (effective concentration producing 80% maximal effect) for LPA activation empirically determined. Selectivity was then tested in a concentration response paradigm using a 3 h preincubation followed by LPA-induced calcium mobilization.
(§2) Plasmids containing human LPAR1-6 were obtained from Origene (Rockville, MD) and maxiprepped at Eton Biosciences (San Diego, CA). Transfection mix was prepared by adding Fugene 6 transfection mix to serum free media and 0.1 µg plasmid. After a 20 m incubation, HEK293T cells (ATCC, Manassas VA) were lifted with Accutase and added to the Fugene mix at a final concentration of 0.5 × 10^4 cells/well. Cells were then plated on black clear bottom 96-well plates and incubated overnight in a 37 °C, 5% CO2 incubator. […] During the last hour of incubation, media was removed and replaced with Fluo-4 NW calcium assay dye prepared as per manufacturer’s recommendations in assay buffer. Agonist plates containing LPA were prepared for individual receptor subytpes using their respective EC80. Calcium mobilization was measured as per manufacturer’s directions on a Flexstation 3 (Molecular Devices, San Jose, CA).

human LPAR3 = molecular target: T3, human LPAR3 (Homo sapiens, UniProt Q9UBY5); assay: as above; type: cell-based; conditions: empirically determined, used for stimulation
T3 construct: host or cells: HEK293T
T3 sequence (Q9UBY5 1-353): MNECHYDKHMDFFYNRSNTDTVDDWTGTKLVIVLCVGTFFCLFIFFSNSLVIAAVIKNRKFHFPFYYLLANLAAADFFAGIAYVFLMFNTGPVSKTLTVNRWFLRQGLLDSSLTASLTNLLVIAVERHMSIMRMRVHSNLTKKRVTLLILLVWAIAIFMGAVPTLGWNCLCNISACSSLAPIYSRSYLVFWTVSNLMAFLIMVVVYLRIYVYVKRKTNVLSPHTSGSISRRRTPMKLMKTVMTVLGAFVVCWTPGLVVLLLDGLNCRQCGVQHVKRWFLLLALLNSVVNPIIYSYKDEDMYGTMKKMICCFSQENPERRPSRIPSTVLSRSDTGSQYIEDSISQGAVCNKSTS
Protocol: as §1, §2

human LPAR4 = molecular target: T4, human LPAR4 (Homo sapiens, UniProt Q99677); assay: as above; type: cell-based; conditions: empirically determined, used for stimulation
T4 construct: host or cells: HEK293T
Protocol: as §1, §2

human LPAR5 = molecular target: T5, human LPAR5 (Homo sapiens, UniProt Q9H1C0); assay: as above; type: cell-based; conditions: empirically determined, used for stimulation
T5 construct: host or cells: HEK293T
Protocol: as §1, §2

human LPAR6 = molecular target: T6, human LPAR6 (Homo sapiens, UniProt P43657); assay: as above; type: cell-based; conditions: empirically determined, used for stimulation
T6 construct: host or cells: HEK293T
T6 sequence (P43657 1-344): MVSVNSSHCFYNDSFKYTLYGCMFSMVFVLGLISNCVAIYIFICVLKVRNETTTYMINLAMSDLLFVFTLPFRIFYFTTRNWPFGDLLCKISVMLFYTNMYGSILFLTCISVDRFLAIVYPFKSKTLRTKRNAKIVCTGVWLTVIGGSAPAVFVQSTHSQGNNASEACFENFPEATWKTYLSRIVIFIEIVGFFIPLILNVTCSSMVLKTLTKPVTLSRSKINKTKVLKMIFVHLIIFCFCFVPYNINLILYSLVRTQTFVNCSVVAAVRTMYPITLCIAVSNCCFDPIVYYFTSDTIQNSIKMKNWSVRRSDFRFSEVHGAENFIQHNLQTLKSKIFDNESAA
Protocol: as §1, §2

LPAR1 [6] = molecular target: T1, LPAR1; assay: as above; type: cell-based; design: host or cells: HEK293T; conditions: empirically determined, used for stimulation
Protocol: as §1, §2

T1 sequence (Q92633 whole entry): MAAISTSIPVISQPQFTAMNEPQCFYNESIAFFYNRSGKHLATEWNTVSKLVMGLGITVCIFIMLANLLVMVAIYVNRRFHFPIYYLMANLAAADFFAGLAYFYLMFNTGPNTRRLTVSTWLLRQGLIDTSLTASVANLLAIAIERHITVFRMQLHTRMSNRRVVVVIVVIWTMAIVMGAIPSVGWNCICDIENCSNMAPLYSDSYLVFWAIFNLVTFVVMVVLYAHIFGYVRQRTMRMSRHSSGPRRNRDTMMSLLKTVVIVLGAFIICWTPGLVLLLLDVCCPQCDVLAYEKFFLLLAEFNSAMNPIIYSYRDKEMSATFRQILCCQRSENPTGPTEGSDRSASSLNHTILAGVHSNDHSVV
T4 sequence (Q99677 whole entry): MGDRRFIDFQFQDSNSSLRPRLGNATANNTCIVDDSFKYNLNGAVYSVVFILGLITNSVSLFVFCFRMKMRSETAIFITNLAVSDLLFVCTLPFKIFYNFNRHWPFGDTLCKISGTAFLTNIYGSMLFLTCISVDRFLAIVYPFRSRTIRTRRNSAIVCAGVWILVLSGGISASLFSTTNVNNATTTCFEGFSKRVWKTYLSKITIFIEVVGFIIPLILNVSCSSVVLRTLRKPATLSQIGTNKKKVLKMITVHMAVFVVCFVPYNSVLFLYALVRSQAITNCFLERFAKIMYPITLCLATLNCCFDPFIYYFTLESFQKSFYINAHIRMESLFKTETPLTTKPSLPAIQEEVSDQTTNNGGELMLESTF
T5 sequence (Q9H1C0 whole entry): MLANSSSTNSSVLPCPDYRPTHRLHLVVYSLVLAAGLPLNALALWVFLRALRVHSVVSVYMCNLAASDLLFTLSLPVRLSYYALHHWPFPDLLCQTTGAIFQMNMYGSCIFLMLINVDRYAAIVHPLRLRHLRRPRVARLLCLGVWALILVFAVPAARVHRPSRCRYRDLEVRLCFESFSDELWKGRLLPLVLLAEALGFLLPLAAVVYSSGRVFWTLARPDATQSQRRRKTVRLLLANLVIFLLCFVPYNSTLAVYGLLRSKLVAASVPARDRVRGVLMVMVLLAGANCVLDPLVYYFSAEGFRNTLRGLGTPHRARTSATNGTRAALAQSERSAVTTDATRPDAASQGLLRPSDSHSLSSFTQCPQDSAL
T2 sequence (Q9HBW0 whole entry): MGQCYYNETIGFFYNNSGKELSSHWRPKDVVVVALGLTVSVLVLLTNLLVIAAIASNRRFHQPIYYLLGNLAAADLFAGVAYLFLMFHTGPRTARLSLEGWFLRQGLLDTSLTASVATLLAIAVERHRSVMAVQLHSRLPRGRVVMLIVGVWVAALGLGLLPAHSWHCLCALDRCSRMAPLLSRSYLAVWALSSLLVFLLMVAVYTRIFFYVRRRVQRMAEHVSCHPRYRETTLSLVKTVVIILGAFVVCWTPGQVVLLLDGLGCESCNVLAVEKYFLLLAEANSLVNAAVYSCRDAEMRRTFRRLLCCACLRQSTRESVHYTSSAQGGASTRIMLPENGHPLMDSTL

Compound: Cc1noc(-c2ccc(-c3ccc(C4(C(=O)O)CC4)cc3)cc2)c1NC(=O)O[C@H](C)c1ccccc1 [BMS-986020, reference compound]
lung hydroxyproline compared to bleomycin/vehicle [1]: no reduction in hydroxyproline | reduction in tissue collagen fraction (TCF), trichrome ([1]; p = 0.2723): 62%

IC50 (LPAR1 [3]): 80.4 nM
Compound: CCCN(C)C(=O)OCc1c(-c2ccc(O[C@H]3CCC[C@H](C(=O)O)C3)c(C)n2)nnn1C [BMS-986278, reference compound]
IC50 [2]: 30.6 nM

Compound: COC(=O)c1ccc2c(c1)NC(=O)/C2=C(\Nc1ccc(N(C)C(=O)CN2CCN(C)CC2)cc1)c1ccccc1 [nintedanib, reference compound]
secreted C3M [4]: significant reduction | secreted Pro-C3 [4]: did not show a significant decrease | secreted Pro-C6 [4]: reduced

Compound: [O-][S+]1CCc2nc(N3CCC(c4ncc(Cl)cn4)CC3)nc(NC3(CO)CCC3)c21 (stereo not shown) [nerandomilast]
COL3A1 mRNA expression vs vehicle ([5]; 10 µM, P 0.1621 (not significant)): reduces | TIMP1 mRNA expression vs vehicle ([5]; 10 µM, P 0.6976 (not significant)): reduces | SERPINE1 mRNA expression vs vehicle ([5]; 10 µM, P 0.8986 (not significant)): reduces | COL1A1 mRNA expression vs vehicle ([5]; 10 µM, P < 0.05): significantly less

LPA EC80 (human LPAR2): 5000 nM | LPA EC80 (human LPAR3): 10000 nM | LPA EC80 (human LPAR4): 10000 nM | LPA EC80 (human LPAR5): 1000 nM | LPA EC80 (human LPAR6): 13000 nM | LPA EC80 (LPAR1 [6]): 5000 nM
Compound: lysophosphatidic acid [LPA, reference compound]

Compound: COCCN(CCCCc1ccc2c(n1)NCCC2)CC[C@H](Nc1ncnc2ccccc12)C(=O)O [bexotegrast]
COL3A1 mRNA expression vs vehicle ([5]; 300 nM, P 0.1827 (not significant)): reduces | SERPINE1 mRNA expression vs vehicle ([5]; 300 nM, P 0.4056 (not significant)): reduces | LPAR1 mRNA expression vs vehicle ([5]; 300 nM, P 0.8283): unchanged | COL1A1 mRNA expression vs vehicle ([5]; 300 nM, P < 0.05): significantly less | TIMP-1 mRNA expression vs vehicle ([5]; 300 nM, P < 0.05): significantly lower
